Test results: patent US20230031406A1, “COMPOUNDS AND COMPOSITIONS FOR TREATING CONDITIONS ASSOCIATED WITH NLRP ACTIVITY” (Novartis AG, priority 2018, published 2023)

Tested on: PMA-differentiated THP-1 cells
Experiment: IL-1β production in PMA-differentiated THP-1 cells stimulated with gramicidin (hTHP-1 assay containing 2% fetal bovine serum; Procedures 1 and 2)
Type: cell-based, human
Settings: Homo sapiens, THP-1, Table B2; 2% fetal bovine serum; class symbols; read-out: hTHP-1 IC50
Summary of the method: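 THP-1 cells were differentiated with PMA (20 ng/ml, 16-18 h), detached, and plated at 50,000 cells/well in RPMI 1640 with 2% FBS. They were pre-treated with compound (0.0017–100 μM, 0.37% DMSO) for 1 h, then stimulated with gramicidin (5 μM) for 2 h. Supernatant IL-1β was measured by HTRF.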

Compound | IC50 [µM]
C[C@@H]1CCc2c1nc1c(c2NC(=O)N=S(N)(=O)c2ccn(-c3ccccc3)n2)CCC1 (single isomer, unassigned) [Compound 700b, (R) or (S)-N′-(((R)-3-methyl-1,2,3,5,6,7-hexahydrodicyclopenta [b,e]pyridin-8-yl)carbamoyl)-1-phenyl-1H-pyrazole-3-sulfonimidamide] | 0.2 to 1
CC(C)(O)c1scc(S(N)(=O)=NC(=O)Nc2c3c(nc4c2CCC4)CCC3)c1F (single isomer, unassigned) [Compound 701a, (R) or (S)-4-Fluoro-N′-((1,2,3,5,6,7-hexahydrodicyclopenta [b,e]pyridin-8-yl)carbamoyl)-5-(2-hydroxypropan-2-yl)thiophene-3-sulfonimidamide] | 5 to 30
Cc1c(C(F)(F)F)nc2c(c1NC(=O)N=[S@](N)(=O)c1ccn(C)n1)CCC2 (single isomer, unassigned) [Compound 730a] | 5 to 30

Same assay, conditions: Homo sapiens, THP-1, Table B2; 2% fetal bovine serum; numeric bounds; read-out: hTHP-1 IC50

Compound | IC50 [µM]
CC1(C)CCc2c1nc1c(c2NC(=O)N=S(N)(=O)c2sc(C(C)(O)CO)cc2F)CCC1 (single isomer, unassigned) [Compound 699a, (S, S) and (R, S) or (S, R) and (R, R)-5-(1,2-Dihydroxypropan-2-yl)-N′-((3,3-dimethyl-1,2,3,5,6,7-hexahydrodicyclopenta [b,e]pyridin-8-yl)carbamoyl)-3-fluorotliophene-2-sulfonimidamide] | > 30
C[C@@H]1CCc2c1nc1c(c2NC(=O)N=S(N)(=O)c2ccn(-c3ccccc3)n2)CCC1 (single isomer, unassigned) [Compound 700a, (S) or (R)-N′-(((R)-3-methyl-1,2,3,5,6,7-hexahydrodicyclopenta [b,e]pyridin-8-yl)carbamoyl)-1-phenyl-1H-pyrazole-3-sulfonimidamide] | > 30
CC(C)(O)c1scc(S(N)(=O)=NC(=O)Nc2c3c(nc4c2CCC4)CCC3)c1F (single isomer, unassigned) [Compound 701b, (S) or (R)-4-Fluoro-N′-((1,2,3,5,6,7-hexahydrodicyclopenta [b,e]pyridin-8-yl)carbamoyl)-5-(2-hydroxypropan-2-yl)thiophene-3-sulfonimidamide] | > 30

Same assay, conditions: Homo sapiens, THP-1, Table B3; hTHP-1 assay, 2% fetal bovine serum; class symbols; read-out: IC50

Compound | IC50 [µM]
CC(C)n1nc(S(N)(=O)=NC(=O)Nc2c3c(nc4c2CCC42CC2)CCC3)cc1CO (single isomer, unassigned) [Example 641, (R) or (S)-5-(hydroxymethyl)-1-isopropyl-N′-((1′,5′,6′,7′-tetrahydro-2′H-spiro[cyclopropane-1,3′-dicyclopenta[b,e]pyridin]-8′-yl)carbamoyl)-1H-pyrazole-3-sulfonimidamide] | 1 to 5

Same assay, conditions: Homo sapiens, THP-1, Table B3; hTHP-1 assay, 2% fetal bovine serum; numeric values; read-out: IC50

Compound | IC50 [µM]
CC(C)n1nc(S(N)(=O)=NC(=O)Nc2c3c(nc4c2CCC42CC2)CCC3)cc1CO (single isomer, unassigned) [Example 642, (S) or (R)-5-(hydroxymethyl)-1-isopropyl-N′-((1′,5′,6′,7′-tetrahydro-2′H-spiro[cyclopropane-1,3′-dicyclopenta[b,e]pyridin]-8′-yl)carbamoyl)-1H-pyrazole-3-sulfonimidamide] | > 30

Same assay, conditions: Homo sapiens, THP-1, read-out: hTHP-1 IC50 in 2% FBS, hTHP-1 assay containing 2% fetal bovine serum; Table B5

Compound | IC50 [µM]
CCn1cc(F)c(S(N)(=O)=NC(=O)Nc2c(C)c(C(F)(F)F)nc3c2CC(C)C3)n1 (single isomer, unassigned) [Compound 1101a] | 0.04 to 0.2

Same assay, conditions: Table B2; 2% fetal bovine serum; class symbols; read-out: hTHP-1 IC50

IC50 [µM] | Compound
5 to 30 | CC(C)(O)c1cc(S(N)(=O)=NC(=O)Nc2c3c(nc4c2CCC4(C)C)CCC3)nn1-c1ccc(F)cc1 (single isomer, unassigned) [Compound 705a, (S) or (R)-N′-((3,3-dimethyl-1,2,3,5,6,7-hexahydrodicyclopenta [b,e]pyridin-8-yl)carbamoyl)-1-(4-fluorophenyl)-5-(2-hydroxypropan-2-yl)-1H-pyrazole-3-sulfonimidamide]
1 to 5 | CC(C)(O)c1cc(S(N)(=O)=NC(=O)Nc2c3c(nc4c2CCC4(C)C)CCC3)nn1-c1ccc(F)cc1 (single isomer, unassigned) [Compound 705b, (R) or (S)-N′-((3,3-dimethyl-1,2,3,5,6,7-hexahydrodicyclopenta [b,e]pyridin-8-yl)carbamoyl)-1-(4-fluorophenyl)-5-(2-hydroxypropan-2-yl)-1H-pyrazole-3-sulfonimidamide]
0.2 to 1 | CCc1cc(F)c(S(N)(=O)=NC(=O)Nc2c3c(nc4c2CC[C@H]4C)CCC3)s1 (single isomer, unassigned) [Compound 720a, (R) or (S)-5-Ethyl-3-fluoro-N′-(((R)-3-methyl-1,2,3,5,6,7-hexahydrodicyclopenta[b, e]pyridin-8-yl)carbamoyl)thiophene-2-sulfonimidamide]
5 to 30 | CCc1cc(F)c(S(N)(=O)=NC(=O)Nc2c3c(nc4c2CC[C@H]4C)CCC3)s1 (single isomer, unassigned) [Compound 720b, (S) or (R)-5-Ethyl-3-fluoro-N′-(((R)-3-methyl-1,2,3,5,6,7-hexahydrodicyclopenta[b, e]pyridin-8-yl)carbamoyl)thiophene-2-sulfonimidamide]
5 to 30 | CCc1csc(S(N)(=O)=NC(=O)Nc2c3c(nc4c2CC[C@H]4C)CCC3)c1 (single isomer, unassigned) [Compound 721a, (S) or (R)-4-Ethyl-N′-(((R)-3-methyl-1,2,3,5,6,7-hexahydrodicyclopenta[b, e]pyridin-8-yl)carbamoylithiophene-2-sulfonimidamide]
0.04 to 0.2 | CCc1csc(S(N)(=O)=NC(=O)Nc2c3c(nc4c2CC[C@H]4C)CCC3)c1 (single isomer, unassigned) [Compound 721b, (R) or (S)-4-Ethyl-N′-(((R)-3-methyl-1,2,3,5,6,7-hexahydrodicyclopenta[b, e]pyridin-8-yl)carbamoyl)thiophene-2-sulfonimidamide]
5 to 30 | C[C@@H]1CCc2c1nc1c(c2NC(=O)N=S(N)(=O)c2ccn(C(C)(F)F)n2)CCC1 (single isomer, unassigned) [Compound 723a, (S) or (R)-1-(1,1-Difluoroethyl)-N′-(((R)-3-methyl-1,2,3,5,6,7-hexahydrodicyclopenta[b, e]pyridin-8-yl)carbamoyl)-1H-pyrazole-3-sulfonimidamide]
0.04 to 0.2 | C[C@@H]1CCc2c1nc1c(c2NC(=O)N=S(N)(=O)c2ccn(C(C)(F)F)n2)CCC1 (single isomer, unassigned) [Compound 723b, (R) or (S)-1-(1,1-Difluoroethyl)-N′-(((R)-3-methyl-1,2,3,5,6,7-hexahydrodicyclopenta [b,e]pyridin-8-yl)carbamoyl)-1H-pyrazole-3-sulfonimidamide]
5 to 30 | CCn1cc(Cl)c(S(N)(=O)=NC(=O)Nc2c(C)c(C(F)(F)F)nc3c2CCC3)n1 (single isomer, unassigned) [Compound 729a, (S) or (R)-4-Chloro-1-ethyl-N′-((3-methyl-2-(trifluoromethyl)-6,7-dihydro-5H-cyclopenta[b]pyridin-4-yl)carbamoyl)-1H-pyrazole-3-sulfonimidamide]
0.04 to 0.2 | CCn1cc(Cl)c(S(N)(=O)=NC(=O)Nc2c(C)c(C(F)(F)F)nc3c2CCC3)n1 (single isomer, unassigned) [Compound 729b, (R) or (S)-4-Chloro-1-ethyl-N′-((3-methyl-2-(trifluoromethyl)-6,7-dihydro-5H-cyclopenta[b]pyridin-4-yl)carbamoyl)-1H-pyrazole-3-sulfonimidamide]

The remaining lines, values behind:

Compound | IC50 [µM]
CC1(C)CCc2c1nc1c(c2NC(=O)N=S(N)(=O)c2sc(C(C)(O)CO)cc2F)CCC1 (single isomer, unassigned) [Compound 699b, (S, R) and (R, R) or (R, S) and (S, S)-5-(1,2-Dihydroxypropan-2-yl)-N′-((3,3-dimethyl-1,2,3,5,6,7-hexahydrodicyclopenta [b,e]pyridin-8-yl)carbamoyl)-3-fluorotliophene-2-sulfoni midamide] | 0.008 to 0.04
CC1(C)CCc2c1nc1c(c2NC(=O)N=S(N)(=O)c2sc(C(C)(O)CO)cc2F)CCC1 (single isomer, unassigned) [Compound 699c, (R, S) and (S, S) or (S, R) and (R, R)-5-(1,2-Dihydroxypropan-2-yl)-N′-((3,3-dimethyl-1,2,3,5,6,7-hexahydrodicyclopenta [b,e]pyridin-8-yl)carbamoyl)-3-fluorotliophene-2-sulfonimidamide] | 5 to 30

Same assay, conditions: Table B3; hTHP-1 assay, 2% fetal bovine serum; class symbols; read-out: IC50

Compound | IC50 [µM]
Cc1c(C(F)(F)F)nc2c(c1NC(=O)N=S(N)(=O)c1nn(C(F)F)cc1F)CCC2 (single isomer, unassigned) [Example 562] | 0.2 to 1
Cc1c(C(F)(F)F)nc2c(c1NC(=O)N=S(N)(=O)c1nn(C(F)F)cc1F)CCC2 (single isomer, unassigned) [Example 563] | 5 to 30
CCc1c(CC(F)(F)F)nc2c(c1NC(=O)N=S(N)(=O)c1sc(C(C)(C)O)cc1F)CCC2 (single isomer, unassigned) [Example 639, (R) or (S)-N′-((3-ethyl-2-(2,2,2-trifluoroethyl)-6,7-dihydro-5H-cyclopenta[b]pyridin-4-yl)carbamoyl)-3-fluoro-5-(2-hydroxypropan-2-yl) thiophene-2-sulfonimidamide] | 0.2 to 1
CCc1c(CC(F)(F)F)nc2c(c1NC(=O)N=S(N)(=O)c1sc(C(C)(C)O)cc1F)CCC2 (single isomer, unassigned) [Example 640, (S) or (R)-N′-((3-ethyl-2-(2,2,2-trifluoroethyl)-6,7-dihydro-5H-cyclopenta[b]pyridin-4-yl)carbamoyl)-3-fluoro-5-(2-hydroxypropan-2-yl) thiophene-2-sulfonimidamide] | 5 to 30
